Data: article PMC4533973, “Synthesis and Evaluation of Chloramphenicol Homodimers: Molecular Target, Antimicrobial Activity, and Toxicity against Human Cells” (PLoS ONE, 2015)
Read-outs that look alike come from different tables or passages of the source. Marks after values point to notes of the source that are not given here.

Tests used:
[1] = test system: 70S ribosomes from E. coli (central loop of Domain V of 23S rRNA); experiment: Time-resolved footprinting of RI and R*I complexes; assay type: binding; conditions: ratio to control lane R
From the text: The behavior of compound 5 was compared to that of compound 4, which is bearing a flexible linker of the same length. The footprinting analysis exploits the slow-binding character of the dimers and has been successfully applied in studying various slow-binding inhibitors of the PTase. To overcome potential drawbacks resulting from protections caused by natural PTase substrates, naked 70S ribosomes were used instead of complex C. To footprint the RI complex, compounds 4 or 5 used in excess, and ribosomes were incubated at 25°C for 2 s, and then treated with chemical probes for 3 min to modify accessible nucleosides in 23S rRNA. Because the first step of binding, R + I ⇄ RI, equilibrates rapidly while the formation of R*I occurs slowly, the main product formed during such a short time interval was complex RI (>93%). To footprint the R*I complex, each dimer and ribosomes were incubated for 10 min, a time interval that is over than ten half-lives required for the attainment of the steady state. Because the isomerization constant, k on/k off, is at least 2.2 (see Table 1), most of the ribosomes added in the reaction mixture (>70%) were in the form of R*I complex at the end of this time interval.
Chemical modification of complexes RI and R*I with DMS, kethoxal, or CMCT, primer extension analysis, and gel electrophoresis of the primer extension products were performed as previously described. […] Quantitative scanning of the gels, and normalization of the band intensities were made as previously shown. Values indicated in Table 2 denote the ratio between the normalized intensity of a band of interest and the normalized intensity of the corresponding band in the control lane (ribosomes non-treated with CAM or CAM dimers).

E. faecium (GRE5152) = experiment: Antibacterial activity (growth inhibition, EC50); assay type: cell-based; conditions: Enterococcus faecium
From the text: (§1) A.S. Mankin (University of Illinois). E. coli ΔtolC strain BL21 DE3 with impaired AcrAB-TolC, a proton-dependent MDR efflux pump causing multidrug resistance, was offered by Dr D.N. Wilson (University of Munich) and included in our study to test if this mechanism of resistance affects the efficacy of CAM dimers. […] I. Spiliopoulou (National Reference Laboratory for Staphylococci, School of Medicine, University of Patras, Greece). Finally, E. coli strain Rosetta(DE3)pLysS, containing a chloramphenicol resistant gene in the pLysS plasmid, was purchased from Novagen and was also included in our study. Briefly, S. aureus or E. coli cells (200 μl of a 0.700 OD560 preculture) containing wild-type or mutant ribosomes were added in 3.8 ml of LB (Luria-Bertani) medium and grown at 37°C in the presence or absence of CAM or CAM dimers until the optical density of the control culture (grown in the absence of drug) reached the value 0.700 at 560 nm. For E. faecium and P. aeruginosa cultures, TSB (Tryptic Soy Broth) medium was used, instead of LB medium, in order to achieve exponential doubling times between 25 and 35 minutes. From dose-response curves, the half-maximal effective concentration (EC50) for each compound and strain was estimated. EC50 represents the molar concentration of a compound that produces 50% of the maximal possible effect. The EC50 values were mathematically determined by non linear regression fitting of the observed culture optical-density values, expressed as the percentage of 0.700 (y), into Hill Equation, y=min+max−min/1+(x/EC50)^−n where min and max are the lowest and highest observed values of the culture optical density, respectively, x the concentration of the tested compound, and n the Hill coefficient that represents the largest absolute value of the curve slope. EC50 is equal to the x- value of the sigmoid’s midpoint. Fitting was performed using the Four Parameter Logistic Curve of the SigmaPlot Program Version 11.0 (Systat Software, Inc) for Exact Graphs and Data Analysis.

MRSA (GRE2272) = experiment: Antibacterial activity (growth inhibition, EC50); assay type: cell-based; conditions: Staphylococcus aureus
From the text: as §1

MRSA (GRE2691) = experiment: Antibacterial activity (growth inhibition, EC50); assay type: cell-based; conditions: Staphylococcus aureus
From the text: as §1

S. aureus (WT) = experiment: Antibacterial activity (growth inhibition, EC50); assay type: cell-based; conditions: Staphylococcus aureus
From the text: as §1

P. aeruginosa (GRE5288) = experiment: Antibacterial activity (growth inhibition, EC50); assay type: cell-based, Pseudomonas aeruginosa; conditions: Pseudomonas aeruginosa
From the text: as §1

CAM acetyltransferase = molecular target: T1, CAM acetyltransferase (Escherichia coli, UniProt P62577); experiment: CAM acetyltransferase assay (compounds as acetyl-acceptor substrates); assay type: biochemical, E. coli
T1 construct: purchased Sigma-Aldrich; host or cells: E. coli
Procedure: Fig 6 Kinetic analysis of the CAM acetyltransferase reaction using CAM or compounds 4 and 5 as substrates. […] The product of the enzymatic reaction, coenzyme A, reacted with 5,5’-dithio-bis(2-nitrobenzoic acid) to yield 5-thio-2-nitrobenzoate which absorbs at 412 nm, with a micromolar extinction coefficient equal to 0.0136. The Vmax and Km values were determined by fitting the substrate concentrations [S] and the obtained ΔA412nm/min (Vo) values into equation V 0 = V max[S]/(K m + [S]). The obtained Vmax values were divided by 0.0136 to convert their units in μM·min^-1 (http://www.sigmaaldrich.com/technical-documents/protocols/biology/enzymatic-assay-of-chloramphenicol-acetyltransferase.html). The ratio Vmax/Km for each curve is given in parenthesis. TEXT PRINTED IN THE PICTURE: no label printed: (0.178 min^-1) | no label printed: (0.139 min^-1) | no label printed: (0.008 min^-1) DOUBTS OF THE COPYIST ABOUT THIS PICTURE: The picture prints no substance label and no measure name for the three values. They stand beside the curves marked with triangles (0.178 min^-1), circles (0.139 min^-1) and squares (0.008 min^-1). […]

[2] = R*I complex (10 min incubation)
[3] = LB medium, 37°C, OD560, read-out: EC50

T1 sequence (P62577 whole entry, looked up): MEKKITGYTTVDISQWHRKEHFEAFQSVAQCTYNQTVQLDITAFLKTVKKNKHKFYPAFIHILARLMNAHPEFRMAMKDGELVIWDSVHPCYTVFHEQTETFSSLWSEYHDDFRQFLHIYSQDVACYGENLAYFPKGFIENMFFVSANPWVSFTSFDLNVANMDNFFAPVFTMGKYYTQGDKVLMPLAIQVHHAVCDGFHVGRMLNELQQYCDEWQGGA

SMILES | Relative reactivity of A2058 [1, 2] | Relative reactivity of A2059 ([1]; R*I complex) | Relative reactivity of A2062 ([1]; R*I complex) | Relative reactivity of A2451 ([1]; R*I complex) | Relative reactivity of G2505 ([1]; R*I complex) | Relative reactivity of U2506 ([1]; R*I complex) | Relative reactivity of U2609 ([1]; R*I complex) | Relative reactivity of A2058 ([1]; RI complex (2 s incubation)) | Relative reactivity of A2059 ([1]; RI complex) | Relative reactivity of A2062 ([1]; RI complex) | Relative reactivity of A2451 ([1]; RI complex) | Relative reactivity of G2505 ([1]; RI complex) | Relative reactivity of U2506 ([1]; RI complex) | Relative reactivity of U2609 ([1]; RI complex) | behaviour as substrate of CAM acetyltransferase (CAM acetyltransferase) | also measured
O=C(CCCCC(=O)N[C@H](CO)[C@H](O)c1ccc([N+](=O)[O-])cc1)N[C@H](CO)[C@H](O)c1ccc([N+](=O)[O-])cc1 [Compound 4, N^1,N^6-Bis((1R,2R)-1,3-dihydroxy-1-(4-nitrophenyl)propan-2-yl)adipamide] | 0.90 ± 0.09 | 0.70 ± 0.07 ^b ^, ^c | 0.67 ± 0.05 ^b ^, ^c | 0.77 ± 0.05 ^b | 0.44 ± 0.03 ^b | 0.70 ± 0.04 ^b | 1.00 ± 0.07 | 0.99 ± 0.07 | 0.94 ± 0.06 | 0.88 ± 0.08 ^b | 0.67 ± 0.04 ^b | 0.43 ± 0.03 ^b | 0.70 ± 0.05 ^b | 1.00 ± 0.10 | behaves like CAM as substrate of CAM acetyltransferase | EC50 (E. faecium (GRE5152)): 99.8 ± 46.9 µM; EC50 (MRSA (GRE2272)): > 200 µM; EC50 (MRSA (GRE2691)): 76.9 ± 8.6 µM; EC50 (S. aureus (WT)): 28.3 ± 1.8 µM; EC50 (P. aeruginosa (GRE5288)): 72.6 ± 13.7 µM
O=C(N[C@H](CO)[C@H](O)c1ccc([N+](=O)[O-])cc1)c1ccc(C(=O)N[C@H](CO)[C@H](O)c2ccc([N+](=O)[O-])cc2)cc1 [Compound 5, N^1,N^4-Bis ((1R,2R)-1,3-dihydroxy-1-(4-nitrophenyl)propan-2-yl)-terephthalamide] | 0.32 ± 0.04 ^b ^, ^c | 0.33 ± 0.08 ^b ^, ^c | 0.40 ± 0.09 ^b ^, ^c | 0.41 ± 0.05 ^c | 0.35 ± 0.06 ^c | 0.33 ± 0.05 ^b ^, ^c | 0.79 ± 0.08 ^b ^, ^c | 0.93 ± 0.06 | 0.96 ± 0.08 | 0.80 ± 0.06 ^b | 0.40 ± 0.03 ^b | 0.38 ± 0.05 ^b | 0.47 ± 0.05 ^b | 1.00 ± 0.08 | almost inactive | EC50 (E. faecium (GRE5152); TSB medium, 37°C, OD560, read-out: EC50): 40.9 ± 3.8 µM; EC50 (MRSA (GRE2272); [3]): 16.9 ± 4.4 µM; EC50 (MRSA (GRE2691); [3]): 24 ± 3.1 µM; EC50 (S. aureus (WT); [3]): 15.4 ± 1.9 µM; EC50 (P. aeruginosa (GRE5288); TSB medium, clinical isolate with MexAB-OprM and MexXY efflux, read-out: EC50): 15.2 ± 1.3 µM
